Key:
Experiment in all cases: AUC of viability dose-response curve (% viability x log10 dose units); higher = less sensitive
Details in all cases: 48 h
P12-Ichikawa = system: P12-Ichikawa
Outline: (§1)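 Viability of medium-adapted leukemia cells was measured by CellTiter-Glo One luminescence after 48 h at 37°C with library compounds in DMSO. Doses were 11 threefold steps from 47 μM to 0.79 nM, in 1536-well plates at 500 or 1000 cells/well. Signals were normalised per plate to DMSO and cell-free wells and fitted with a four-parameter log-logistic model on log10 dose. Area under the curve was integrated by trapezoidal rule, with curves exceeding full viability scaled and failed quality-control curves removed.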

NOMO1 = system: NOMO1
Outline: as §1

SEM cells = system: SEM cells
Outline: as §1

[1] = RPMI 5 mM glucose + 10% dialyzed FBS

Question: What does the source list for `CNC[C@H](O)c1ccc(O)c(O)c1`?
Answer: AUC of viability dose-response curve (P12-Ichikawa; HPLM + 10% dialyzed FBS): 446; AUC of viability dose-response curve (P12-Ichikawa; RPMI 5 mM glucose + 10% FBS): 448; AUC of viability dose-response curve (P12-Ichikawa; [1]): 412; AUC of viability dose-response curve (NOMO1; HPLM + 10% dialyzed FBS): 425; AUC of viability dose-response curve (NOMO1; RPMI 5 mM glucose + 10% FBS): 402; AUC of viability dose-response curve (NOMO1; [1]): 408

Question: What does the source list for `OC[C@H]1OCC(O1)[N@@]2C=CC(N)=NC2=O` (stereo partly specified)?
Answer: AUC of viability dose-response curve (P12-Ichikawa; HPLM + 10% dialyzed FBS): 458; AUC of viability dose-response curve (P12-Ichikawa; RPMI 5 mM glucose + 10% FBS): 458; AUC of viability dose-response curve (P12-Ichikawa; [1]): 446; AUC of viability dose-response curve (NOMO1; HPLM + 10% dialyzed FBS): 465; AUC of viability dose-response curve (NOMO1; RPMI 5 mM glucose + 10% FBS): 463; AUC of viability dose-response curve (NOMO1; [1]): 475

Question: What does the source list for `CC(C)C(=O)Oc1ccc(CO)cc1[C@H](CCN(C(C)C)C(C)C)c1ccccc1`?
Answer: AUC of viability dose-response curve (SEM cells; HPLM + 10% dialyzed FBS): 376; AUC of viability dose-response curve (SEM cells; RPMI 5 mM glucose + 10% FBS): 402; AUC of viability dose-response curve (SEM cells; [1]): 433; AUC of viability dose-response curve (P12-Ichikawa; HPLM + 10% dialyzed FBS): 405; AUC of viability dose-response curve (P12-Ichikawa; RPMI 5 mM glucose + 10% FBS): 398; AUC of viability dose-response curve (P12-Ichikawa; [1]): 381

Question: How did the “AUC of viability dose-response curve” value (SEM cells; HPLM + 10% dialyzed FBS) turn out when `N#Cc1c(NC(=O)c2cccc3ccccc23)sc2c1CCCC2` was run?
Answer: 318

Question: And the “AUC of viability dose-response curve” value (SEM cells; RPMI 5 mM glucose + 10% FBS)?
Answer: 304

Question: What about the “AUC of viability dose-response curve” value (SEM cells; [1]) of the same compound?
Answer: 310

Question: What about the “AUC of viability dose-response curve” value (P12-Ichikawa; HPLM + 10% dialyzed FBS) of the same compound?
Answer: 325

Question: And the “AUC of viability dose-response curve” value (P12-Ichikawa; RPMI 5 mM glucose + 10% FBS)?
Answer: 325

Question: What about the “AUC of viability dose-response curve” value (P12-Ichikawa; [1]) of the same compound?
Answer: 346

Question: What about the “AUC of viability dose-response curve” value (NOMO1; HPLM + 10% dialyzed FBS) of the same compound?
Answer: 345

Question: What about the “AUC of viability dose-response curve” value (NOMO1; RPMI 5 mM glucose + 10% FBS) of the same compound?
Answer: 339

Question: What about the “AUC of viability dose-response curve” value (NOMO1; [1]) of the same compound?
Answer: 346

Question: What does the source list for `COC1=C2OC(=O)\C=C/C2=CC3=C1OC=C3`?
Answer: AUC of viability dose-response curve (SEM cells; HPLM + 10% dialyzed FBS): 459; AUC of viability dose-response curve (SEM cells; RPMI 5 mM glucose + 10% FBS): 458; AUC of viability dose-response curve (SEM cells; [1]): 456; AUC of viability dose-response curve (P12-Ichikawa; HPLM + 10% dialyzed FBS): 447; AUC of viability dose-response curve (P12-Ichikawa; RPMI 5 mM glucose + 10% FBS): 449; AUC of viability dose-response curve (P12-Ichikawa; [1]): 426; AUC of viability dose-response curve (NOMO1; HPLM + 10% dialyzed FBS): 465; AUC of viability dose-response curve (NOMO1; RPMI 5 mM glucose + 10% FBS): 451; AUC of viability dose-response curve (NOMO1; [1]): 466

Question: For `CNC(=O)c1ccc(N2C(=S)N(c3ccc(C#N)c(C(F)(F)F)c3)C(=O)C23CCC3)cc1F`, which “AUC of viability dose-response curve” value (SEM cells; HPLM + 10% dialyzed FBS) is on record?
Answer: 425

Question: And the “AUC of viability dose-response curve” value (SEM cells; RPMI 5 mM glucose + 10% FBS)?
Answer: 408

Question: What about the “AUC of viability dose-response curve” value (SEM cells; [1]) of the same compound?
Answer: 411

Question: Which results are given for `CC/1=C(/N2[C@H](SC1)[C@H](NC(=O)[C@H](N)\C3=C\C\C=C/C3)C2=O)C(O)=O`?
Answer: AUC of viability dose-response curve (SEM cells; HPLM + 10% dialyzed FBS): 429; AUC of viability dose-response curve (SEM cells; RPMI 5 mM glucose + 10% FBS): 470; AUC of viability dose-response curve (SEM cells; [1]): 448; AUC of viability dose-response curve (P12-Ichikawa; HPLM + 10% dialyzed FBS): 471; AUC of viability dose-response curve (P12-Ichikawa; RPMI 5 mM glucose + 10% FBS): 441; AUC of viability dose-response curve (P12-Ichikawa; [1]): 440; AUC of viability dose-response curve (NOMO1; HPLM + 10% dialyzed FBS): 446; AUC of viability dose-response curve (NOMO1; RPMI 5 mM glucose + 10% FBS): 454; AUC of viability dose-response curve (NOMO1; [1]): 461

Question: With `O=C(c1ccc(Nc2nccc(-c3cc4ccccc4s3)n2)cc1)N1CCC(N2CCCC2)CC1` as the compound, how does the “AUC of viability dose-response curve” value (SEM cells; HPLM + 10% dialyzed FBS) read?
Answer: 382

Question: And the “AUC of viability dose-response curve” value (SEM cells; RPMI 5 mM glucose + 10% FBS)?
Answer: 389

Question: What about the “AUC of viability dose-response curve” value (SEM cells; [1]) of the same compound?
Answer: 394

Question: And the “AUC of viability dose-response curve” value (P12-Ichikawa; HPLM + 10% dialyzed FBS)?
Answer: 430

Question: What about the “AUC of viability dose-response curve” value (P12-Ichikawa; RPMI 5 mM glucose + 10% FBS) of the same compound?
Answer: 441

Question: What about the “AUC of viability dose-response curve” value (P12-Ichikawa; [1]) of the same compound?
Answer: 425

Question: And the “AUC of viability dose-response curve” value (NOMO1; HPLM + 10% dialyzed FBS)?
Answer: 411

Question: What about the “AUC of viability dose-response curve” value (NOMO1; RPMI 5 mM glucose + 10% FBS) of the same compound?
Answer: 446

Question: What about the “AUC of viability dose-response curve” value (NOMO1; [1]) of the same compound?
Answer: 432

Question: For `C[N]1C=C(C2=C1C=CC=C2)\C3=C(\C(=O)NC3=O)C4=C5CC(CN)CC[N]5C6=C4C=CC=C6` (stereo unspecified), which “AUC of viability dose-response curve” value (SEM cells; HPLM + 10% dialyzed FBS) is on record?
Answer: 395

Question: What about the “AUC of viability dose-response curve” value (SEM cells; RPMI 5 mM glucose + 10% FBS) of the same compound?
Answer: 399

Question: What about the “AUC of viability dose-response curve” value (SEM cells; [1]) of the same compound?
Answer: 420

Question: And the “AUC of viability dose-response curve” value (P12-Ichikawa; HPLM + 10% dialyzed FBS)?
Answer: 456

Question: What about the “AUC of viability dose-response curve” value (P12-Ichikawa; RPMI 5 mM glucose + 10% FBS) of the same compound?
Answer: 440

Question: What about the “AUC of viability dose-response curve” value (P12-Ichikawa; [1]) of the same compound?
Answer: 443

Question: What about the “AUC of viability dose-response curve” value (NOMO1; HPLM + 10% dialyzed FBS) of the same compound?
Answer: 452

Question: What about the “AUC of viability dose-response curve” value (NOMO1; RPMI 5 mM glucose + 10% FBS) of the same compound?
Answer: 443

Question: What about the “AUC of viability dose-response curve” value (NOMO1; [1]) of the same compound?
Answer: 460

Question: `O=c1[nH]c2ccccc2n1C1CCN(Cc2ccc(-c3nc4cc5nc[nH]c5cc4nc3-c3ccccc3)cc2)CC1` was tested. Which “AUC of viability dose-response curve” value (P12-Ichikawa; HPLM + 10% dialyzed FBS) did it give?
Answer: 457

Question: And the “AUC of viability dose-response curve” value (P12-Ichikawa; RPMI 5 mM glucose + 10% FBS)?
Answer: 460

Question: What about the “AUC of viability dose-response curve” value (P12-Ichikawa; [1]) of the same compound?
Answer: 443

Question: And the “AUC of viability dose-response curve” value (NOMO1; HPLM + 10% dialyzed FBS)?
Answer: 439

Question: What about the “AUC of viability dose-response curve” value (NOMO1; RPMI 5 mM glucose + 10% FBS) of the same compound?
Answer: 463

Question: And the “AUC of viability dose-response curve” value (NOMO1; [1])?
Answer: 474

Question: How did the “AUC of viability dose-response curve” value (P12-Ichikawa; HPLM + 10% dialyzed FBS) turn out when `C[C@]12CCC(=O)C=C1CC[C@@H]1[C@@H]2CC[C@@]2(C)[C@H]1CC[C@]2(C)O` was run?
Answer: 465

Question: What about the “AUC of viability dose-response curve” value (P12-Ichikawa; RPMI 5 mM glucose + 10% FBS) of the same compound?
Answer: 458

Question: And the “AUC of viability dose-response curve” value (P12-Ichikawa; [1])?
Answer: 452

Question: And the “AUC of viability dose-response curve” value (NOMO1; HPLM + 10% dialyzed FBS)?
Answer: 440

Question: And the “AUC of viability dose-response curve” value (NOMO1; RPMI 5 mM glucose + 10% FBS)?
Answer: 430

Question: And the “AUC of viability dose-response curve” value (NOMO1; [1])?
Answer: 453

Question: With `C/C=C1\C2C=C(C)CC1(N)c1ccc(=O)[nH]c1C2` (stereo unspecified) as the compound, how does the “AUC of viability dose-response curve” value (SEM cells; HPLM + 10% dialyzed FBS) read?
Answer: 442

Question: What about the “AUC of viability dose-response curve” value (SEM cells; RPMI 5 mM glucose + 10% FBS) of the same compound?
Answer: 458

Question: And the “AUC of viability dose-response curve” value (SEM cells; [1])?
Answer: 463

Question: What about the “AUC of viability dose-response curve” value (P12-Ichikawa; HPLM + 10% dialyzed FBS) of the same compound?
Answer: 471

Question: And the “AUC of viability dose-response curve” value (P12-Ichikawa; RPMI 5 mM glucose + 10% FBS)?
Answer: 447

Question: And the “AUC of viability dose-response curve” value (P12-Ichikawa; [1])?
Answer: 442

Question: And the “AUC of viability dose-response curve” value (NOMO1; HPLM + 10% dialyzed FBS)?
Answer: 463

Question: And the “AUC of viability dose-response curve” value (NOMO1; RPMI 5 mM glucose + 10% FBS)?
Answer: 467

Question: And the “AUC of viability dose-response curve” value (NOMO1; [1])?
Answer: 465

Question: Which results are given for `NC(=O)c1ccc(I)c([N+](=O)[O-])c1`?
Answer: AUC of viability dose-response curve (SEM cells; HPLM + 10% dialyzed FBS): 473; AUC of viability dose-response curve (SEM cells; RPMI 5 mM glucose + 10% FBS): 470; AUC of viability dose-response curve (SEM cells; [1]): 467; AUC of viability dose-response curve (P12-Ichikawa; HPLM + 10% dialyzed FBS): 461; AUC of viability dose-response curve (P12-Ichikawa; RPMI 5 mM glucose + 10% FBS): 457; AUC of viability dose-response curve (P12-Ichikawa; [1]): 468; AUC of viability dose-response curve (NOMO1; HPLM + 10% dialyzed FBS): 468; AUC of viability dose-response curve (NOMO1; RPMI 5 mM glucose + 10% FBS): 475; AUC of viability dose-response curve (NOMO1; [1]): 464
